Results published in patent US7078065B2, “Composition containing asiasari radix extracts for protecting brain cells and improving memory” (priority 2001, dated 2006).

Key:
[1] = tested on: AMPA-induced depolarization in rat cortical slices; experiment: Grease-gap recording assay: AMPA-induced depolarization in rat cortical wedges; details: AMPA 40 uM for 2 min
Protocol: Cortical wedges from rats were prepared, placed in two-compartment brain bath and experiments were performed as described by Harrison and Simmonds (British J. Pharmacol. 84, 381–391, 1985). ‘Wedges’ of rat cerebral cortex were prepared from the brains of male Wistar rats (200 g). The animal is decapitated and the brain rapidly removed into chilled oxygenated (95% O2/5% CO2) artificial cerebrospinal fluid (ACSF) containing (mM): NaCl 122, NaHCO3 25, KCl 3.1, KH2PO4 0.4, CaCl2 1.3, MgSO4 1.4, D-glucose 10, (pH 7.4). […] coronal slices were taken and they were then placed in room temperature oxygenated ACSF and hemisected with a razor blade. A wedge of tissue was formed such that the dorsal cortical surface containing cerebral cortex and corpus callosum was approximately 1.5 mm wide and ventral surface was approximately 1 mm wide. The wedges were further incubated in ACSF for 2 hrs at room temperature.
Cortical wedges were placed in a two-compartment bath and a greased (high vacuum silicon grease) barrier placed such that a high-resistance seal was formed between the two compartments. Oxygenated ACSF was perfused through the two compartments separately at 2 ml/min for at least 1 hr. […] The DC potential between the two compartments was monitored via Ag/AgCl electrodes. The signal was amplified and analyzed with the aid of McLab software.

[2] = tested on: differentiated PC12 cells; experiment: Cell viability (MTT) assay, AMPA-induced damage in differentiated PC12 cells; assay type: cell-based; details: AMPA 40 uM
Protocol: (§1) MTT assay is a method to measure mitochondrial redox with calorimeter and it is primarily used to know mitochondrial redox potential or cell viability (Mosmann T., J Immunol. Methods, 1983). PC 12 cells and C6 glial cells were grown in DMEM media with 10% fetal calf serum in 5% humidified CO2 atmosphere at 37° C. PC12 cells were induced to differentiation into neuronal cells by the addition of nerve growth factor (100 ng/ml). Fresh NGF was added every 48 h and experiments were conducted after NGF treatment for 7 days.
(§2) The cells were plated in 96 well plates at a density of 1×10^5 cells/well. Cells were preincubated with AMPA (40 μM) and followed by the addition of AR fractions (10 μg/ml) for 24 hrs. MTT reagent (Sigma, USA) (5 mg/ml) was made in PBS (phosphate buffered saline) and filtered. The cells were then treated with MTT (final concentration, 0.5 mg/ml) and allowed to incubate for 3 hrs at 37° C. Cells containing active mitochondria form dark blue formazan by disintegrating tetrazolium ring. The culture media were removed and the cells were subjected to lysis in the presence of […] of DMSO and […] of Sorensen glycine buffer (0.1M glycine, 0.1M NaCl, pH 10.5). The absorbance was measured with spectrophotometer at 570 nm. The ratio of absorbance of experimental groups to control groups is expressed as % cell viability.

[3] = tested on: C6 glial cells; experiment: Cell viability (MTT) assay, AMPA-induced damage in C6 glial cells; assay type: cell-based
Protocol: as §1, §2

Cc1o[nH]c(=O)c1CC(N)C(=O)O (stereo not drawn) [AMPA]
increase in depolarization [1]: up to 0.79 mV
reduction in cell viability as compared to control [2]: approximately 50%
reduction in cell viability as compared to control [3]: approximately 35%
